Assay results as given in patent publication US11340226B2, “Squalene epoxidase in the diagnosis and treatment of non-alcoholic fatty liver diseases” (priority 2018, dated 2022).

Key:
[1] = tested on: HKCI10; experiment: Cell growth, cell viability (MTS) assay; type: cell-based; conditions: 25 μM to 50 μM
Procedure: (§1) 2 NAFLD-HCC cell lines (HKCI2, HKCI10) and one liver cancer cell line HepG2 were used in this study. Cell lines were maintained in RPMI-1640 or DMEM medium (Gibco BRL, Rockville, Md.) with 10% fetal bovine serum.
(§2) Cell viability was determined by the 3-(4,5-dimethylthiazol-2-yl)-5-(3-carboxyme-thoxyphenyl)-2-(4-sulfophenyl)-2H-tetrazolium (MTS) assay (Promega, Madison, Wis.).

[2] = tested on: Sqle tg mice injected with DEN and fed with a HFHC diet; type: in vivo
Procedure: Sqle tg mice injected with DEN (10 days of age) and fed with a HFHC diet (6 weeks of age). At 20 weeks of age, the mice will be randomized into two group and treated with either vehicle or Terbinafine (80 mg/kg/d, oral gavage). After 8 weeks terbinafine treatment, mice will be sacrificed to examine the therapeutic effect of Terbinafine. […]
The serum cholesterol, TG, ALT and AST level were detected by the Catalyst One Chemistry Analyzer according to the manufacturer's instructions (IDEXX, USA). Thirty microliters of serum from wild-type or Sqle tg mice were diluted to 90 μl by physiological saline buffer. The diluted samples and specific slides (cholesterol, ALT and AST) were then loaded into the analyzer for automatic analysis. […]

[3] = tested on: HKCI10; experiment: Colony formation assay; type: cell-based; conditions: 25 μM to 50 μM
Procedure: as §1
(§3) For cell colony formation assay, liver cancer cells (1000/well) were plated in 6-well plates. Different dose of Terbinafine were added to these cells at the second day. After culturing for 5-7 days, cells were fixed with 70% ethanol and stained with 0.5% crystal violet solution. Colonies with more than 50 cells per colony were counted. All experiments were conducted three times in triplicates.

[4] = tested on: HKCI2; experiment: Colony formation assay; type: cell-based, human; conditions: 25 μM to 50 μM
Procedure: as §1, §3

[5] = tested on: HepG2; experiment: Colony formation assay; type: cell-based, human; conditions: 25 μM to 50 μM
Procedure: as §1, §3

[6] = tested on: SQLE and PCNA expression; experiment: Western blot of SQLE and PCNA expression in treated cells; type: cell-based
[7] = tested on: HFHC-fed WT mice; experiment: HFHC-induced NAFLD in WT mice; type: in vivo
Source text: (§4) WT and Sqle Tg mice were fed with normal diet (18% fat, 58% carbohydrate, 24% protein, 0% cholesterol) or high fat high cholesterol (HFHC: 43.7% fat, 36.6% carbohydrate, 19.7% protein, 0.203% cholesterol) diets (Specialty Feeds, Glen Forrest, Wash.) ad libitum for different time point to generate spontaneous NAFLD model and diet-induced NASH model. Sqle tg mice and their wild-type littermates (WT) were fed a high fat high cholesterol diet at the age of 6 weeks. At 17 weeks of age (Sqle tg mice) or 24 weeks of age (WT mice), the mice will be randomized into two group and treated with either vehicle or Terbinafine (80 mg/kg/d, oral gavage). After 8 (WT mice) or 9 weeks (Sqle tg mice) terbinafine treatment, mice will be sacrificed to examine the therapeutic effect of Terbinafine. Assessment of NAFLD: Liver histology were evaluated at sacrifice using H&E staining. Assessment of inflammation: Liver damage were determined using serum ALT and AST. PCR and cytokine arrays were used to evaluate expression of pro-inflammatory cytokines. Assessment of metabolic syndrome: Insulin tolerance tests and glucose tolerance tests will be determined as described above. 20 mg tissues were harvested, and liver […] Quantification kit (ab65341, Abcam) according to manufacturer's instructions. All experiments were conducted three times in triplicates. Results were shown as the means±SEM. The serum cholesterol, TG, ALT and AST level were detected by the Catalyst One Chemistry Analyzer according to the manufacturer's instructions (IDEXX, USA). Thirty microliters of serum from wild-type or Sqle tg mice were diluted to 90 μl by physiological saline buffer. The diluted samples and specific slides (cholesterol, ALT and AST) were then loaded into the analyzer for automatic analysis.

[8] = tested on: Sqle tg mice fed with a HFHC diet; experiment: NASH development in HFHC-fed Sqle tg mice; type: in vivo
Procedure: as §4, with “model. 2 mg tissues were harvested, and liver cholesterol levels were detected by Cholesterol/Cholesteryl Ester Quantification kit (ab65359, Abcam) according to manufacturer's instructions. All experiments were conducted three times in triplicates. Results were shown as the means±SEM. 100 mg tissues were harvested, and liver triglyceride levels were detected by triglyceride Quantification kit (ab65336, Abcam) according to manufacturer's instructions. All experiments were conducted three times in triplicates. Results were shown as the means±SEM.” for “model.”, “analysis. For the glucose tolerance test, mice were fasted overnight by transferring mice to clean cages with no food or feces in upper or bottom of cage. Mice were then injected intraperitoneally with 0.75 U insulin per kg body weight (ITT) or 1 g glucose per kg body weight (GTT) in water. Blood from the tail vein was obtained before the injection and at 30, 60 and 90 min after the injection for determination of blood glucose using Glucose Meter.” for “analysis.”

[9] = tested on: HKCI2; experiment: Cell growth, cell viability (MTS) assay; type: cell-based, human; conditions: 25 μM to 50 μM
Procedure: as §1, §2

[10] = tested on: HepG2; experiment: Cell growth, cell viability (MTS) assay; type: cell-based, human; conditions: 25 μM to 50 μM
Procedure: as §1, §2

[11] = tested on: orthotopic HKCI2 xenografts; experiment: Orthotopic HKCI2 xenograft (human NAFLD-HCC) nude mice model; type: in vivo, Balb/c nude mice
Procedure: An orthotopic human NAFLD-HCC mouse model was established using HKCI2 cells. HKCI2 cells (1×10^7 cells in 0.1 ml PBS) were injected subcutaneously into the left dorsal flank of 4-week-old male Balb/c nude mice. Subcutaneous tumors were harvested once they reached about 10 mm^3 and cut into 1.0 mm^3 pieces. One piece of a tumor was implanted into the left liver lobe in a separate group of nude mice (4-week-old). Four weeks after implantation, these mice were divided into vehicle group (PBS, p.o.) and terbinafine group (80 mg/kg, p.o.). Eight weeks post-implantation, the mice were sacrificed and examined. 10^6 cells or 2 mg tissues were harvested, and cholesterol/cholesteryl ester levels were detected by Cholesterol/Cholesteryl Ester Quantification kit (ab65359, Abcam) according to manufacturer's instructions. All experiments were conducted three times in triplicates. Results were shown as the means±SEM.

[12] = tested on: HCC cell lines; experiment: Cholesterol/cholesteryl ester levels in cells; type: cell-based
Procedure: (§5) 10^6 cells or 2 mg tissues were harvested, and cholesterol/cholesteryl ester levels were detected by Cholesterol/Cholesteryl Ester Quantification kit (ab65359, Abcam) according to manufacturer's instructions. All experiments were conducted three times in triplicates. Results were shown as the means±SEM.

[13] = tested on: HepG2 xenografts; experiment: Subcutaneous HepG2 xenograft nude mice model; type: in vivo, Balb/c nude mice
Procedure: A xenograft human liver cancer mouse model was established using HepG2 cells. HepG2 cells (1×10^7 cells in 0.1 ml PBS) were injected subcutaneously into the left dorsal flank of 4-week-old male Balb/c nude mice. Once the subcutaneous tumors reached about 100 mm^3, these mice were divided into vehicle group (PBS, p.o.) and terbinafine group (80 mg/kg, p.o.) randomly. Tumor diameter was measured every days for 10 days. For survival analysis, tumor diameter was measured every two days for 40 days. Tumor volume (mm^3) was estimated by measuring the longest and shortest diameter of the tumor and calculating as follows: volume=(shortest diameter)^2×(longest diameter)×0.5. Care of animals and all experimental procedures were approved by the Animal Ethics Committee of the Chinese University of Hong Kong. After more than 2 weeks, the mice were sacrificed, and the tumors were weighed and fixed in formalin for histological analysis. […]
as §5

[14] = DEN-injected HFHC-fed Sqle tg mice
[15] = livers of Sqle tg mice, western blot
[16] = 80 mg/kg/d oral gavage, 8 weeks
[17] = 80 mg/kg/d oral gavage, 9 weeks
[18] = subcutaneous HepG2 xenografts, 80 mg/kg/d, p.o.

## CN(C/C=C/C#CC(C)(C)C)Cc1cccc2ccccc12 [terbinafine]
[1]
  cell lines proliferation by cell growth assay: markedly suppressed
[2]; 80 mg/kg/d oral gavage, 8 weeks, P<0.01
  tumor number: significantly reduced
[2]; 80 mg/kg/d oral gavage, 8 weeks, vs 8/9 mice in PBS, P<0.05
  tumor incidence: 4/9
[2]; [14]
  NADP^+/NADPH ratio: reducing
  liver cholesterol levels: decreased
  liver/body weight ratio: decreased
  serum cholesterol levels: decreased
[2]; [15]
  Dnmt3a protein expression: inhibited
  Pten expression: restored
  Sqle protein expression: inhibited
[2]; vs vehicle
  HCC tumorigenesis and cell proliferation (H&E and Ki-67 staining of livers): reduction
[3]
  cell lines proliferation by colony formation assay: markedly suppressed
[4]
  cell lines proliferation by colony formation assay: markedly suppressed
[5]
  cell lines proliferation by colony formation assay: markedly suppressed
[6]
  PCNA expression: suppressed
  SQLE expression: suppressed
[7]
  HFHC-induced serum cholesterol: attenuated
  liver steatosis (H&E staining and free fatty acid assay): reduction
  serum ALT level: attenuated
  serum AST level: attenuated
  serum triglyceride: attenuated
[7]; [16]
  body weight: significantly decrease
  liver weight: significantly decrease
[8]
  insulin sensitivity (ITTs): markedly improved
  liver cholesterol level: significantly decreased
  liver free fatty acid accumulation: significantly decreased
  liver triglyceride: significantly decreased
  serum ALT level: significantly decreased
  serum AST level: significantly decreased
  serum triglyceride: significantly decreased
[8]; [17]
  body weight gain: significantly attenuated
  liver weight: significantly attenuated
  liver/body weight ratio: significantly attenuated
[8]; qPCR
  liver inflammation and fibrosis level (mRNA expression of inflammation and fibrosis mediators): reduced
[8]; vs PBS control
  steatohepatitis (H&E staining of livers): reduction
[9]
  cell lines proliferation by cell growth assay: markedly suppressed
[10]
  cell lines proliferation by cell growth assay: markedly suppressed
[11]; 80 mg/kg, p.o., both in terms of tumor size or tumor weight, P<0.01
  suppression of growth of orthotopic HKCI2 xenografts: > 85%
[11]; HKCI2 xenografts
  tumor cholesteryl ester levels: suppressed
  tumor free cholesterol levels: suppressed
[12]
  cholesteryl ester levels: suppressed
  free cholesterol levels: suppressed
[13]; 80 mg/kg, p.o., P<0.01
  suppression of growth of subcutaneous HepG2 xenografts: 77.8%
[13]; HepG2 xenografts
  tumor cholesteryl ester levels: suppressed
  tumor free cholesterol levels: suppressed
[13]; [18]
  tumor volume: significant reductions
  tumor weight: significant reductions
[13]; tumor size 400 mm^3 as cutoff, P<0.01
  overall survival of mice harboring HepG2 xenografts: significantly prolonged
